# In US20170327598A1, “SINGLE DOMAIN ANTIBODIES DIRECTED AGAINST INTRACELLULAR ANTIGENS” (SINGH MOLECULAR MEDICINE, LLC, priority 2014, published 2017):
# “And” between values parts separate entries of the source, which are not always exact repeats. Equal values may be shown once.
# How the values were obtained:
# [1] = tested on: translocation of Stat3 to the nucleus; assay: Stat3 immunofluorescence after IL-6 treatment (HEp-2, MDA-MB-231, PANC-1); type: cell-based; conditions: sdAb 1:10 in media overnight, 100 ng/ml IL-6 15 min
# Procedure: The cells were grown to confluence on chamber slides. […] As a negative control, no antibody was added to duplicate chambers. The slides were washed, and either serum-free media alone or 100 ng/ml recombinant human IL-6 (Peprotech, Rocky Hill, N.J.) in serum free media was added to the slides for 15 min at 37° C. The media was then removed and the chamber slides were fixed in ice cold 100% methanol for 10 min at −20° C.
# Immunofluorescence assays were performed on the fixed slides. First, the slides were blocked with 3% BSA in PBS was done for one hour at room temperature. The primary antibody, Stat3(124H6) mouse monoclonal antibody (Cell Signaling Technology, Danvers, Mass.) was added to the slides at a 1:1000 dilution overnight in dark box at 4° C. The following day, the slides were washed and the secondary Alexa Fluor 488 anti-mouse IgG antibody (Cell Signaling Technology) was added at a 1:500 dilution and incubated for 1 hour at room temperature. The slides were then washed, mounted with mounting media and viewed with a fluorescence microscope.
# DU145 cells = assay: MTT proliferation assay, DU145; type: cell-based, human; parameters: Mean Abs: unit of the concentration uncertain
substance,measurement,setting,value
"Anti-STAT3 VHH13: anti-STAT3 single domain antibody, SEQ ID NO:3; bacterially produced form referred to as SBT-100",translocation of Stat3 to the nucleus following IL-6 treatment,[1],blocks the translocation of Stat3 to the nucleus
same,Average Absorbance,"DU145 cells; DU145, 50 μg",0.98
same,Average % Inhibition,"DU145 cells; DU145, 50 μg (50.0 μg/ml), listed as anti-STAT3 bacterial VHH13",31.2%
same,Absorbance,"DU145 cells; DU145, 50 μg, Experiments 1-3, listed as Anti-STAT3 Bacterial VHH13",0.68 and 1.2 and 1.03
same,Average Absorbance,"DU145 cells; DU145, 100 μg",0.10
same,Mean Abs,"DU145 cells; Table 18, DU145, 0.39 (unit uncertain)",0.906
same,Mean Abs,"DU145 cells; Table 18, DU145, 3.13 (unit uncertain)",0.783
same,Mean Abs,"DU145 cells; Table 18, DU145, 6.25 (unit uncertain)",0.770
same,Mean Abs,"DU145 cells; Table 18, DU145, 25 (unit uncertain)",0.359
same,Mean Abs,"DU145 cells; Table 18, DU145, 50 (unit uncertain)",0.161
same,Mean Abs,"DU145 cells; Table 18, DU145, 100 (unit uncertain)",0.039
same,Mean Abs,"DU145 cells; Table 18, DU145, 200 (unit uncertain)",0.039
